Columns and labels:
human MetAP2 enzyme [1] = biological target: T1, human MetAP2 enzyme (Homo sapiens, UniProt P50579); test: MetAP2 enzyme assay, MetAP2 enzyme complexed with cobalt ions; conditions: MetAP2 Co pIC50, 10 μM CoCl2; -log(IC50), IC50 molar
Description: (§1) DNA encoding the full-length sequence of human MetAP2 enzyme is amplified by PCR and cloned into a pFastBac expression vector (Invitrogen). Recombinant baculovirus incorporating the MetAP2 construct is generated by transposition using the Bac-to-Bac system (Invitrogen). The expression of recombinant protein is carried out by infection of Spodoptera frugiperda Sf9 cells (Invitrogen) in 5L Wave Bioreactors (Wave Biotech). Recombinant protein is isolated from cellular extracts by binding to an SP Hitrap Fast Flow or SP Sepharose (Sigma) column, and the protein is eluted using a NaCl gradient. Partially purified extracts of MetAP2 are further purified by an AKTA FPLC over a Superdex-200 column (GE). The purity of MetAP2 protein is determined on denaturing SDS-PAGE gel.
(§2) The results for each well are expressed as percent inhibition and calculated using the equation:

human MetAP2 enzyme [2] = biological target: T1, human MetAP2 enzyme; test: MetAP2 enzyme assay, MetAP2 enzyme complexed with manganese ions; conditions: MetAP2 Mn pIC50, 10 μM MnCl2; -log(IC50), IC50 molar
Description: as §1, §2

T1 sequence (P50579 whole entry): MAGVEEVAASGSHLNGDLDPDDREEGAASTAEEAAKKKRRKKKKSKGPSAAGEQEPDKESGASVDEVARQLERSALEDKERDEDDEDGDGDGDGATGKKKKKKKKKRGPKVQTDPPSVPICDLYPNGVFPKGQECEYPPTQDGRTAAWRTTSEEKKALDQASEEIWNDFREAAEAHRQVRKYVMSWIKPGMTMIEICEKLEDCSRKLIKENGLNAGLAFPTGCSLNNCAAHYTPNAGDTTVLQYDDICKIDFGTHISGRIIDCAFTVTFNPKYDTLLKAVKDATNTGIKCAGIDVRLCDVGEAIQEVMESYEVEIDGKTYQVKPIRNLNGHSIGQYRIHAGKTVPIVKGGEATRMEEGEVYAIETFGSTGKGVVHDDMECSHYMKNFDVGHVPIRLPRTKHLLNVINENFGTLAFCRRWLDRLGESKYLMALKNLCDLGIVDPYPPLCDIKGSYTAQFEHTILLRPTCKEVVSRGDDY

Structure (SMILES) | IC50 (human MetAP2 enzyme [1]) | IC50 (human MetAP2 enzyme [2])
Cc1cc2cn[nH]c2cc1-n1c2ccc(F)cc2c2[nH]ncc21 [Example 26, 7-Fluoro-4-(5-methyl-1H-indazol-6-yl)-1,4-dihydropyrazolo[4,3-b]indole] | 0.01 µM | 0.00794 µM
Cc1cccc(-n2c3ccc(F)cc3c3[nH]ncc32)n1 [Example 11, 7-Fluoro-4-(6-methylpyridin-2-yl)-1,4-dihydropyrazolo[4,3-b]indole] | 0.1 µM | 0.00631 µM
Cc1nc(NC[C@@H](C)O)ccc1-n1c2ccc(F)cc2c2[nH]ncc21 [Example 12, (2R)-1-((5-(7-Fluoropyrazolo[4,3-b]indol-4(1H)-yl)-6-methylpyridin-2-yl)amino)propan-2-ol] | 0.0126 µM | 0.00501 µM
CNC(=O)c1ccc(-n2c3ccc(F)cc3c3[nH]ncc32)c(C)n1 [Example 119, 5-(7-Fluoropyrazolo[4,3-b]indol-4(1H)-yl)-N,6-dimethylpicolinamide] | 0.02 µM | 0.01 µM
Cc1nc2[nH]cnc2cc1-n1c2cc(Cl)c(F)cc2c2[nH]ncc21 [Example 129, 6-Chloro-7-fluoro-4-(5-methyl-3H-imidazo[4,5-b]pyridin-6-yl)-1,4-dihydropyrazolo[4,3-b]indole] | 0.0251 µM | 0.0501 µM
Cc1nc2c(cc1-n1c3ccc(F)cc3c3[nH]ncc31)ncn2CCS(C)(=O)=O [Example 116, 7-Fluoro-4-(5-methyl-3-(2-(methylsulfonyl)ethyl)-3H-imidazo[4,5-b]pyridin-6-yl)-1,4-dihydropyrazolo[4,3-b]indole] | 0.0126 µM | 0.00398 µM
Cc1cc(C(=O)NCCCO)ncc1-n1c2ccc(F)cc2c2[nH]ncc21 [Example 115, 5-(7-Fluoropyrazolo[4,3-b]indol-4(1H)-yl)-N-(3-hydroxypropyl)-4-methylpicolinamide] | 0.0126 µM | 0.01 µM
O=C(NCCO)c1ccc(Cn2c3ccc(F)cc3c3[nH]ncc32)cc1 [Example 54, 4-((7-Fluoropyrazolo[4,3-b]indol-4(1H)-yl)methyl)-N-(2-hydroxyethyl)benzamide] | 0.0316 µM | 0.0398 µM
Cc1cc(N)ncc1-n1c2ccc(F)cc2c2[nH]ncc21 [Example 41, 5-(7-Fluoropyrazolo[4,3-b]indol-4(1H)-yl)-4-methylpyridin-2-amine] | 0.0126 µM | 0.0126 µM
Cc1cc(C(=O)N2CC[C@@H](O)C2)ncc1-n1c2ccc(F)cc2c2[nH]ncc21 [Example 109, (5-(7-Fluoropyrazolo[4,3-b]indol-4(1H)-yl)-4-methylpyridin-2-yl)((R)-3-hydroxypyrrolidin-1-yl)methanone] | 0.0251 µM | 0.0251 µM
Cc1nc(N2CCNCC2)ccc1-n1c2ccc(F)cc2c2[nH]ncc21 [Example 64, 7-Fluoro-4-(2-methyl-6-(piperazin-1-yl)pyridin-3-yl)-1,4-dihydropyrazolo[4,3-b]indole] | 0.0158 µM | 0.0126 µM
Cn1nc(C(=O)NCCO)cc1-n1c2ccc(F)cc2c2[nH]ncc21 [Example 88, 5-(7-Fluoropyrazolo[4,3-b]indol-4(1H)-yl)-N-(2-hydroxyethyl)-1-methyl-1H-pyrazole-3-carboxamide] | 0.0251 µM | 0.01 µM
Cc1nc2c(cc1-n1c3ccc(F)cc3c3[nH]ncc31)ncn2CCCO [Example 80, 3-(6-(7-Fluoropyrazolo[4,3-b]indol-4(1H)-yl)-5-methyl-3H-imidazo[4,5-b]pyridin-3-yl)propan-1-ol] | 0.02 µM | 0.0316 µM
Cc1nc(N2CCC(O)CC2)ncc1-n1c2ccc(F)cc2c2[nH]ncc21 [Example 29, 1-(5-(7-Fluoropyrazolo[4,3-b]indol-4(1H)-yl)-4-methylpyrimidin-2-yl)piperidin-4-ol] | 0.00631 µM | 0.00794 µM
CC(c1ccccc1)n1c2ccc(F)cc2c2[nH]ncc21 (centres unmarked) [Example 132, 7-Fluoro-4-(1-phenylethyl)-1,4-dihydropyrazolo[4,3-b]indole] | 0.0501 µM | 0.0501 µM
Cc1ncncc1-n1c2ccc(F)cc2c2[nH]ncc21 [Example 49, 7-Fluoro-4-(4-methylpyrimidin-5-yl)-1,4-dihydropyrazolo[4,3-b]indole] | 0.0631 µM | 0.0316 µM
O=C(C1CC1)n1c2ccc(F)cc2c2[nH]ncc21 [Example 99, Cyclopropyl(7-fluoropyrazolo[4,3-b]indol-4(1H)-yl)methanone] | 0.794 µM | 0.316 µM
Cc1c(-n2c3ccc(F)cc3c3[nH]ncc32)ccc2[nH]ncc12 [Example 71, 7-Fluoro-4-(4-methyl-1H-indazol-5-yl)-1,4-dihydropyrazolo[4,3-b]indole] | 0.0126 µM | 0.01 µM
Cc1cc(C(N)=O)ncc1-n1c2ccc(F)cc2c2[nH]ncc21 [Example 107, 5-(7-Fluoropyrazolo[4,3-b]indol-4(1H)-yl)-4-methylpicolinamide] | 0.02 µM | 0.0126 µM

Structure (SMILES) | IC50 (human MetAP2 enzyme [1]) | IC50 (human MetAP2 enzyme [2])
Nc1ncc(C(=O)O)cc1-n1c2ccc(F)cc2c2[nH]ncc21 [Example 18, 6-Amino-5-(7-fluoropyrazolo[4,3-b]indol-4(1H)-yl)nicotinic acid] | 0.1 µM | 0.0631 µM
Cc1nc(N2C[C@H]3C[C@H]3[C@H]2C(N)=O)ncc1-n1c2ccc(F)cc2c2[nH]ncc21 [Example 136, (1R,2S,5S)-3-(5-(7-Fluoropyrazolo[4,3-b]indol-4(1H)-yl)-4-methylpyrimidin-2-yl)-3-azabicyclo[3.1.0]hexane-2-carboxamide] | 0.00501 µM | 0.00501 µM
CCN1CCn2ncc(-n3c4ccc(F)cc4c4[nH]ncc43)c2C1 [Example 112, 4-(5-Ethyl-4,5,6,7-tetrahydropyrazolo[1,5-a]pyrazin-3-yl)-7-fluoro-1,4-dihydropyrazolo[4,3-b]indole] | 0.0126 µM | 0.02 µM
Cc1ncccc1-n1c2ccc(F)cc2c2[nH]ncc21 [Example 61, 7-Fluoro-4-(2-methylpyridin-3-yl)-1,4-dihydropyrazolo[4,3-b]indole] | 0.0158 µM | 0.0126 µM
Cc1nc2c(cc1-n1c3ccc(F)cc3c3[nH]ncc31)[nH]c(=O)n2C[C@H](O)CO [Example 33, 3-((S)-2,3-Dihydroxypropyl)-6-(7-fluoropyrazolo[4,3-b]indol-4(1H)-yl)-5-methyl-1H-imidazo[4,5-b]pyridin-2(3H)-one] | 0.00794 µM | 0.01 µM
Cc1nc2c(cc1-n1c3ccc(F)cc3c3[nH]ncc31)[nH]c(=O)n2CCCO [Example 81, 6-(7-Fluoropyrazolo[4,3-b]indol-4(1H)-yl)-3-(3-hydroxypropyl)-5-methyl-1H-imidazo[4,5-b]pyridin-2(3H)-one] | 0.00501 µM | 0.00631 µM
Cc1nc(N2CC(CO)C2)ncc1-n1c2ccc(F)cc2c2[nH]ncc21 [Example 47, (1-(5-(7-Fluoropyrazolo[4,3-b]indol-4(1H)-yl)-4-methylpyrimidin-2-yl)azetidin-3-yl)methanol] | 0.00794 µM | 0.0126 µM
Cc1nc(N2CCN(C)CC2)ncc1-n1c2ccc(F)cc2c2[nH]ncc21 [Example 60, 7-Fluoro-4-(4-methyl-2-(4-methylpiperazin-1-yl)pyrimidin-5-yl)-1,4-dihydropyrazolo[4,3-b]indole] | 0.00316 µM | 0.01 µM
Cc1nc2[nH]c(=O)n(CCO)c2cc1-n1c2ccc(F)cc2c2[nH]ncc21 [Example 32, 6-(7-Fluoropyrazolo[4,3-b]indol-4(1H)-yl)-1-(2-hydroxyethyl)-5-methyl-1H-imidazo[4,5-b]pyridin-2(3H)-one] | 0.00794 µM | 0.01 µM
Cn1nc(C(N)=O)cc1-n1c2ccc(F)cc2c2[nH]ncc21 [Example 48, 5-(7-Fluoropyrazolo[4,3-b]indol-4(1H)-yl)-1-methyl-1H-pyrazole-3-carboxamide] | 0.0158 µM | 0.0126 µM
COCc1[nH]ncc1-n1c2ccc(F)cc2c2[nH]ncc21 [Example 65, 7-Fluoro-4-(5-(methoxymethyl)-1H-pyrazol-4-yl)-1,4-dihydropyrazolo[4,3-b]indole] | 0.0126 µM | 0.01 µM
Cc1nc(N2CCC[C@@H](O)C2)ncc1-n1c2ccc(F)cc2c2[nH]ncc21 [Example 24, (3R)-1-(5-(7-Fluoropyrazolo[4,3-b]indol-4(1H)-yl)-4-methylpyrimidin-2-yl)piperidin-3-ol] | 0.00631 µM | 0.00398 µM
Cc1nc(NCCO)ncc1-n1c2ccc(F)cc2c2[nH]ncc21 [Example 74, 2-((5-(7-Fluoropyrazolo[4,3-b]indol-4(1H)-yl)-4-methylpyrimidin-2-yl)amino)ethanol] | 0.01 µM | 0.00794 µM
Cc1c(-n2c3ccc(F)cc3c3[nH]ncc32)ccc2nn(C)cc12 [Example 9, 4-(2,4-Dimethyl-2H-indazol-5-yl)-7-fluoro-1,4-dihydropyrazolo[4,3-b]indole] | 0.01 µM | 0.00631 µM
O=C(NCc1ccccc1)n1c2ccc(F)cc2c2[nH]ncc21 [Example 98, N-Benzyl-7-fluoropyrazolo[4,3-b]indole-4(1H)-carboxamide] | 0.501 µM | 0.158 µM
Cc1ccc(-n2c3ccc(F)cc3c3[nH]ncc32)c(C)n1 [Example 10, 4-(2,6-Dimethylpyridin-3-yl)-7-fluoro-1,4-dihydropyrazolo[4,3-b]indole] | 0.0126 µM | 0.00794 µM
Cc1nc(N2CCOCC2)ccc1-n1c2ccc(F)cc2c2[nH]ncc21 [Example 66, 4-(5-(7-Fluoropyrazolo[4,3-b]indol-4(1H)-yl)-6-methylpyridin-2-yl)morpholine] | 0.01 µM | 0.00316 µM
Cc1nc(C(=O)NC2CC2)ccc1-n1c2ccc(F)cc2c2[nH]ncc21 [Example 101, N-Cyclopropyl-5-(7-fluoropyrazolo[4,3-b]indol-4(1H)-yl)-6-methylpicolinamide] | 0.01 µM | 0.01 µM
